Results: article PMC8204306 (ACS Infectious Diseases, 2021)

Molecular target: EchA19 (Mycobacterium tuberculosis, UniProt O53561)
Sequence (O53561 whole entry): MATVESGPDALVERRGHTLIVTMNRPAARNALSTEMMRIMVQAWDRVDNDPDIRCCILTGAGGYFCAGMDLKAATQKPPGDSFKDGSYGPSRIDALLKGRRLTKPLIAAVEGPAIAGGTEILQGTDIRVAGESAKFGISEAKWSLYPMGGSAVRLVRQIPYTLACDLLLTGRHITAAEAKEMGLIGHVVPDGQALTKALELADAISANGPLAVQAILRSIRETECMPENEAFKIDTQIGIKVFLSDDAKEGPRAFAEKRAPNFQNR

C[C@H](/C=C/C(=O)SCCNC(=O)CCNC(=O)[C@H](O)C(C)(C)COP(=O)(O)OP(=O)(O)OC[C@H]1O[C@@H](n2cnc3c(N)ncnc32)[C@H](O)[C@@H]1OP(=O)(O)O)[C@H]1CC[C@H]2[C@@H]3CCC4=CC(=O)CC[C@]4(C)[C@H]3CC[C@]12C [3-OCDO-CoA]
hydration product identified by MALDI MS and 1H NMR: both EchA19 and ChsH3 performed the hydration reaction on 3-OCDO-CoA
